# Laboratory results reported in patent publication US20250177481A1, “SCO-spondin-derived polypeptides for enhancing synaptic transmission” (AXOLTIS PHARMA, priority 2021, published 2025).
# Positions of bridges follow the written chain, without caps; N, C: chain ends. No end group written: not given here.
# Legend:
# [1] = test system: thalamocortical synaptic response (ventrobasal thalamic nucleus to somatosensory cortex); assay: fEPSP input-output (I/O) recordings in thalamocortical mouse brain slices; assay type: cell-based, C57Bl6/J mice; details: for Normalized fEPSP slope: % of max of vehicle I/O curve, mean of 10 slices
# Method: Comparison of postsynaptic responses in control versus NX218 peptide conditions were assessed.
# Five (C57Bl6/J) male mice 4-5 weeks-old were obtained from Charles River, France and housed in an animal facility. Animal care was compliant with national and local Ethics committee recommendations. Mice were deeply anesthetized by inhalation of isoflurane then decapitated. The dissected brain was quickly placed in ice-cold oxygenated (95% O2/5% CO2) solution containing 214 mM sucrose, 2.5 mM KCl, 1.25 mM NaH2PO4, 26 mM NaHCO3, 2 mM MgSO4, 2 mM CaCl2 and 10 mM D-glucose.
# 10 Thalamocortical slices (2 slices per mouse) were prepared as described in Agmon and Connors (1991) and Varela et al. (2013). After its recovery, the brain was placed on a support allowing to elevate the caudal part of the brain until dorsal surface forms a 10-degree angle with the horizontal plane. Then, a section at 55 degrees with respect to the midline was performed and the rostral part was removed. In the slicing chamber, the brain was glued on the sectioned face. Then, the brain was sliced with a thickness of 400 μm. Slices were immediately transferred to a holding chamber filled with an artificial cerebrospinal fluid (aCSF) composed by 124 mM NaCl, 2.5 mM KCl, 1.25 mM NaH2PO4, 26 mM NaHCO3, 2 mM MgSO4, 2 mM CaCl2 and 10 mM D-glucose. The holding chamber was continuously oxygenated and maintained at 35° C. After a recovery period of 30 min, slices were incubated at room temperature for a minimum of 30 min.
# For electrophysiological recordings, a single slice was placed in the recording chamber (room temperature) submerged and continuously superfused at a constant rate (2 mL/min) with gassed (95% O2, 5% CO2) aCSF for the reminder of the experiment.
# A bipolar tungsten stimulating electrode was placed in the ventrobasal nucleus of the thalamus (the ventrobasal nucleus of the thalamus contains mostly glutamatergic neurons and few GABAergic interneurons) and extracellular field potential was recorded in the somatosensory cortex using a glass microelectrode.
# Synaptic transmission Input/Output (I/O) curves were constructed to assess changes in the synaptic transmission, using a range of stimulus intensities from 0 μA to 850 μA with 50 μA intervals. Increasing stimulation intensities results in a linear increase until a maximal plateau in vehicle conditions.
# Signals were amplified with an Axopatch 200B amplifier (Molecular Devices, Union City, CA) digitized by a Digidata 1322A interface (Axon Instruments, Molecular Devices, US) and sampled at 10 kHz. Recordings were acquired using Clampex (Molecular Devices) and analyzed with Clampfit (Molecular Devices). Experimenters were blinded to treatment groups for all experiments.
# NX218 or vehicle was delivered in the thalamic radiations region by fast focal perfusion. The system consists of syringes containing the respective solutions with tubing lines fusing to a low dead-volume manifold mounted to a micromanipulator. The tip (300-μm diameter) mounted to the manifold was located within a desired distance of less than 1 mm of the target region, with a flow rates of approximately 0.2 mL/min. Tubing lines were controlled by electrical pinch valves which were opened and closed by transistor-transistor logic signals sent out from the DigiData system and parameters set in the perfusion and recording protocol in Clampex 10.3.
# Data were analyzed by measuring the slope of individual fEPSPs by linear fitting using Clampfit. The slope of fEPSPs was plotted against different intensities of stimulation (from 0 to 850 μA).
# pCREB = pCREB protein level in cortical samples of subchronic PCP mice (WES automated protein analysis); assay type: in vivo, Swiss CD-1 mice; details: PCP + NX218 5 mg/kg D14; PCP alone 44.17; n=5
# Method: PCP (or saline for control group) was administered at a dose of 0.2 mg/kg by subcutaneous injections twice daily for 12 days (day 0 to day 11).
# Approximately 5 minutes after the test, mice were anaesthetized with 5% isoflurane oxygen mixture. Brains were extracted immediately, then the cortex of each hemisphere were collected. Right and left cortices were transferred into clean pre-labelled microtubes and the exact weight of each sample was recorded. Finally, samples were stored at −80° C. for further analysis.
# Brain samples were lysed with a defined buffer lysis consisting of CelLyticMT reagent with 1% of protease and phosphatase inhibitor cocktail (60 μL per well). Lysates were processed at +4° C. and stored at −80° C. at the end of the experiment. For each sample, the quantity of proteins was determined using the micro kit BCA (Pierce). Briefly, lysates were centrifuged and diluted at 1/20 in PBS and mixed, in equal volume, with a micro BCA. After an incubation at 60° C. for 1 hour, the quantity of proteins was measured at 562 nm with a spectrophotometer Nanovue (GE Healthcare) and compared with the standard of Bovine Serum Albumin curve (BSA, Pierce).
# Automated protein analysis were performed using the WES™ system (ProteinSimple®): […]
# Each protein was evaluated independently. […] 5 samples (biological replicates) per condition were analyzed.
substance,measurement,setting,value
W-S-G-W-S-S-C-S-R-S-C-G [NX218] (WSGWSSCSRSCG; disulfide 7-11 (inferred)),change of fEPSP slope vs vehicle alone (whole I/O curve),[1]; particularly for stimulation intensities from 150 to 450 μA,significant increase
same,Normalized fEPSP slope,[1]; stimulation intensity 0 µA,0.37%
same,Normalized fEPSP slope,[1]; stimulation intensity 50 µA,26.12%
same,Normalized fEPSP slope,[1]; stimulation intensity 100 µA,54.34%
same,Normalized fEPSP slope,[1]; stimulation intensity 150 µA,87.31%
same,Normalized fEPSP slope,[1]; stimulation intensity 200 µA,99.95%
same,Normalized fEPSP slope,[1]; stimulation intensity 250 µA,107.48%
same,Normalized fEPSP slope,[1]; stimulation intensity 300 µA,111.20%
same,Normalized fEPSP slope,[1]; stimulation intensity 350 µA,118.22%
same,Normalized fEPSP slope,[1]; stimulation intensity 400 µA,118.91%
same,Normalized fEPSP slope,[1]; stimulation intensity 450 µA,121.63%
same,Normalized fEPSP slope,[1]; stimulation intensity 500 µA,121.16%
same,Normalized fEPSP slope,[1]; stimulation intensity 550 µA,122.81%
same,Normalized fEPSP slope,[1]; stimulation intensity 600 µA,121.42%
same,Normalized fEPSP slope,[1]; stimulation intensity 650 µA,124.24%
same,Normalized fEPSP slope,[1]; stimulation intensity 700 µA,124.14%
same,Normalized fEPSP slope,[1]; stimulation intensity 750 µA,121.65%
same,Normalized fEPSP slope,[1]; stimulation intensity 800 µA,120.97%
same,Normalized fEPSP slope,[1]; stimulation intensity 850 µA,121.41%
same,pCREB protein level in cortical samples,pCREB,68.67 % of control
